18 molecules from patent US9040545B2, “Heterocyclyl pyrazolopyrimidine analogues as selective JAK inhibitors” (Cellzome Limited, priority 2010, dated 2015) can be followed below.

The target of the assay is T1, JAK3 (Homo sapiens, UniProt P52333).
T1 construct: endogenous in cells; host or cells: mixed Molt4/Ramos lysate (1:2)
T1 sequence (P52333 1-1124): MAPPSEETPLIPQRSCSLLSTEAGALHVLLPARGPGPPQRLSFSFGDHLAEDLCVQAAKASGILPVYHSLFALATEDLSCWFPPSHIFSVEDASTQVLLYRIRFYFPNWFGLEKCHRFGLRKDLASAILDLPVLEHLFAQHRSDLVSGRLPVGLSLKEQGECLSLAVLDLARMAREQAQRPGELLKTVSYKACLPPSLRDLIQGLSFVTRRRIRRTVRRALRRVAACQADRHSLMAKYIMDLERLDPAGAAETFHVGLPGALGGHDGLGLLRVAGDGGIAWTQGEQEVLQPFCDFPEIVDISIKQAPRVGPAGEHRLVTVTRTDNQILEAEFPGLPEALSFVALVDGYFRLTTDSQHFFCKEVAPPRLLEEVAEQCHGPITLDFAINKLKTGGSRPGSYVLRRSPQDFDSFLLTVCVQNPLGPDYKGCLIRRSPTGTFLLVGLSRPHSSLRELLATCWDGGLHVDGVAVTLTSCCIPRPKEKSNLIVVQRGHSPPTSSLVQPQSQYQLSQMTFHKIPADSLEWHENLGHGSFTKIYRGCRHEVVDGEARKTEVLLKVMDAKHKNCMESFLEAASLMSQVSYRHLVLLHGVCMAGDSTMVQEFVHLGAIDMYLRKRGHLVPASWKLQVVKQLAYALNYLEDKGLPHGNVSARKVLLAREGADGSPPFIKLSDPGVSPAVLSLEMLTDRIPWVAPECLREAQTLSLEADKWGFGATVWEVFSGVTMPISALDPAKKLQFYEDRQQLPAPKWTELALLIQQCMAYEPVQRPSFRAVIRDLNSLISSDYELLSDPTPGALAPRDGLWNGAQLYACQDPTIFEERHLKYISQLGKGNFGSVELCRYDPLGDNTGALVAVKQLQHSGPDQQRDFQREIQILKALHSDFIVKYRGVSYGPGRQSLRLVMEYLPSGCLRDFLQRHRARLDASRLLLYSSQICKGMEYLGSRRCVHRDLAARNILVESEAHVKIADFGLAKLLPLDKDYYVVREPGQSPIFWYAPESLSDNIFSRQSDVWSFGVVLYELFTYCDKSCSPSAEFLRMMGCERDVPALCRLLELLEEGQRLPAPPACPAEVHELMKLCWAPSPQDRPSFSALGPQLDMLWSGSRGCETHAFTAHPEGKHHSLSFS
In words: Kinobeads assay, JAK3. Format: binding. The following applies: mixed Molt4/Ramos lysate, read-out: Inhibition values (IC50) JAK3. The protocol:
The compounds of the present invention as described in the previous examples were tested in a Kinobeads™ assay as described for ZAP-70 (WO-A 2007/137867). Briefly, test compounds (at various concentrations) and the affinity matrix with the immobilized aminopyrido-pyrimidine ligand 24 were added to cell lysate aliquots and allowed to bind to the proteins in the lysate sample. After the incubation time the beads with captured proteins were separated from the lysate. Bound proteins were then eluted and the presence of JAK2 and JAK3 was detected and quantified using specific antibodies in a dot blot procedure and the Odyssey infrared detection system. Dose response curves for individual kinases were generated and IC50 values calculated. Kinobeads™ assays for ZAP-70 (WO-A 2007/137867) and for kinase selectivity profiling (WO-A 2006/134056) have been previously described.
The affinity matrix was washed two times with 15 mL of 1×DP buffer containing 0.2% NP40 (IGEPAL® CA-630, Sigma, #I3021) and then resuspended in 1×DP buffer containing 0.2% NP40 (3% beads slurry).
5×DP buffer 250 mM Tris-HCl pH 7.4, 25% Glycerol, 7.5 mM MgCl2, 750 mM NaCl, 5 mM Na3VO4; filter the 5×DP buffer through a 0.22 μm filter and store in aliquots at −80° C. The 5×DP buffer is diluted with H2O to 1×DP buffer containing 1 mM DTT and 25 mM NaF.
Stock solutions of test compounds were prepared in DMSO. In a 96 well plate 30 μL solution of diluted test compounds at 5 mM in DMSO were prepared. Starting with this solution a 1:3 dilution series (9 steps) was prepared. For control experiments (no test compound) a buffer containing 2% DMSO was used.
Molt4 cells (ATCC catalogue number CRL-1582) and Ramos cells (ATCC catalogue number CRL-1596) were grown in 1 L Spinner flasks (Integra Biosciences, #182101) in suspension in RPMI 1640 medium (Invitrogen, #21875-034) supplemented with 10% Fetal Bovine Serum (Invitrogen) at a density between 0.15×106 and 1.2×10^6 cells/mL. Cells were harvested by centrifugation, washed once with 1×PBS buffer (Invitrogen, #14190-094) and cell pellets were frozen in liquid nitrogen and subsequently stored at −80° C. Cells were homogenized in a Potter S homogenizer in lysis buffer: 50 mM Tris-HCl, 0.8% NP40, 5% glycerol, 150 mM NaCl, 1.5 mM MgCl2, 25 mM NaF, 1 mM sodium vanadate, 1 mM DTT, pH 7.5. One complete EDTA-free tablet (protease inhibitor cocktail, Roche Diagnostics, 1873580) per 25 mL buffer was added. The material was dounced 10 times using a mechanized POTTER S, transferred to 50 mL falcon tubes, incubated for 30 minutes on ice and spun down for 10 minutes at 20,000 g at 4° C. (10,000 rpm in Sorvall SLA600, precooled). The supernatant was transferred to an ultracentrifuge (UZ)-polycarbonate tube (Beckmann, 355654) and spun for 1 hour at 100,000 g at 4° C. (33.500 rpm in Ti50.2, precooled). The supernatant was transferred again to a fresh 50 mL falcon tube, the protein concentration was determined by a Bradford assay (BioRad) and samples containing 50 mg of protein per aliquot were prepared. The samples were immediately used for experiments or frozen in liquid nitrogen and stored frozen at −80° C.
Cell lysate (approximately 50 mg protein per plate) was thawed in a water bath at room temperature and then stored on ice. To the thawed cell lysate 1×DP 0.8% NP40 buffer containing protease inhibitors (1 tablet for 25 mL buffer; EDTA-free protease inhibitor cocktail; Roche Diagnostics 1873580) was added in order to reach a final protein concentration of 10 mg/mL total protein. The diluted cell lysate was stored on ice. Mixed Molt4/Ramos lysate was prepared by combining one volume of Molt4 lysate and two volumes of Ramos lysate (ratio 1:2).
To a 96 well filter plate (Multiscreen HTS, BV Filter Plates, Millipore #MSBVN1250) were added per well: 100 μL affinity matrix (3% beads slurry), 3 μL of compound solution, and 50 μL of diluted lysate. […]

A word on the IC50: it is the midpoint of a concentration-inhibition curve. Consider `Cn1cc(Nc2ncc3cnn(Cc4cccc(N5CCS(=O)(=O)CC5)c4)c3n2)cn1` [Example 25, 4-(3-((6-((1-Methyl-1H-pyrazol-4-yl)amino)-1H-pyrazolo[3,4-d]pyrimidin-1-yl)methyl)phenyl)thiomorpholine 1,1-dioxide], for which the IC50 was less than 100 nM.
For `Cn1cc(Nc2ncc3cnn(Cc4cccc(-c5cnn(CC(N)=O)c5)c4)c3n2)cn1` [Example 120, 2-(4-(3-((6-((1-methyl-1H-pyrazol-4-yl)amino)-1H-pyrazolo[3,4-d]pyrimidin-1-yl)methyl)phenyl)-1H-pyrazol-1-yl)acetamide], the IC50 is less than 100 nM.
With `CCn1cc(-c2cccc(Cn3ncc4cnc(Nc5cnn(C)c5)nc43)c2)cn1` [Example 116, 1-(3-(1-ethyl-1H-pyrazol-4-yl)benzyl)-N-(1-methyl-1H-pyrazol-4-yl)-1H-pyrazolo[3,4-d]pyrimidin-6-amine] the figure was less than 100 nM; with `Cn1cc(-c2cc(F)c(F)c(Cn3ncc4cnc(Nc5cnn(CCO)c5)nc43)c2)cn1` [Example 127, 2-(4-((1-(2,3-difluoro-5-(1-methyl-1H-pyrazol-4-yl)benzyl)-1H-pyrazolo[3,4-d]pyrimidin-6-yl)amino)-1H-pyrazol-1-yl)ethanol], less than 100 nM; with `Cn1cc(Nc2ncc3cnn(Cc4cc(N5CCOCC5)ccc4F)c3n2)cn1` [Example 15, 1-(2-Fluoro-5-morpholinobenzyl)-N-(1-methyl-1H-pyrazol-4-yl)-1H-pyrazolo[3,4-d]pyrimidin-6-amine], 100 to 1000 nM.
With `O=C(CCn1cc(Nc2ncc3cnn(Cc4cccc(N5CCOCC5)c4)c3n2)cn1)NC1CC1` [Example 35, N-Cyclopropyl-3-(4-((1-(3-morpholinobenzyl)-1H-pyrazolo[3,4-d]pyrimidin-6-yl)amino)-1H-pyrazol-1-yl)propanamide] the figure was less than 100 nM; with `Cn1cc(Nc2ncc3cnn(Cc4cccc(CN5CCOCC5)c4)c3n2)cn1` [Example 7, N-(1-Methyl-1H-pyrazol-4-yl)-1-(3-(morpholinomethyl)benzyl)-1H-pyrazolo[3,4-d]pyrimidin-6-amine], less than 100 nM; with `CN(C)CC1(Cn2cc(Nc3ncc4cnn(Cc5cccc(N6CCOCC6)c5)c4n3)cn2)COC1` [Example 31, N-(1-((3-((Dimethylamino)methyl)oxetan-3-yl)methyl)-1H-pyrazol-4-yl)-1-(3-morpholinobenzyl)-1H-pyrazolo[3,4-d]pyrimidin-6-amine], less than 100 nM.
Turning to `CN(C)CCCn1cc(Nc2ncc3cnn(Cc4cccc(N5CCOCC5=O)c4)c3n2)cn1` [Example 28, 4-(3-((6-((1-(3-(Dimethylamino)propyl)-1H-pyrazol-4-yl)amino)-1H-pyrazolo[3,4-d]pyrimidin-1-yl)methyl)phenyl)morpholin-3-one], the IC50 was less than 100 nM.
For `Cn1cc(Nc2ncc3cnn(Cc4cc(F)cc(N5CC6(COC6)C5)c4)c3n2)cn1` [Example 90, 1-(3-fluoro-5-(2-oxa-6-azaspiro[3.3]heptan-6-yl)benzyl)-N-(1-methyl-1H-pyrazol-4-yl)-1H-pyrazolo[3,4-d]pyrimidin-6-amine], the half-maximal inhibitory concentration (IC50) was less than 100 nM.
The same measure for `Cn1cc(Nc2ncc3cnn(Cc4cccc(N5CCC(F)(F)CC5)c4)c3n2)cn1` [Example 19, 1-(3-(4,4-Difluoropiperidin-1-yl)benzyl)-N-(1-methyl-1H-pyrazol-4-yl)-1H-pyrazolo[3,4-d]pyrimidin-6-amine]: 100 to 1000 nM.
Regarding `CN1CCN(c2cccc(Cn3ncc4cnc(Nc5cnn(C)c5)nc43)c2)CC1` [Example 10, N-(1-Methyl-1H-pyrazol-4-yl)-1-(3-(4-methylpiperazin-1-yl)benzyl)-1H-pyrazolo[3,4-d]pyrimidin-6-amine], the IC50 was less than 100 nM.
The same measure for `CC(C)n1cc(-c2cccc(Cn3ncc4cnc(Nc5cnn(C)c5)nc43)c2)cn1` [Example 117, 1-(3-(1-isopropyl-1H-pyrazol-4-yl)benzyl)-N-(1-methyl-1H-pyrazol-4-yl)-1H-pyrazolo[3,4-d]pyrimidin-6-amine]: 100 to 1000 nM; for `O=C1COCCN1c1cc(F)cc(Cn2ncc3cnc(Nc4cnn(CC5CCNC5)c4)nc32)c1` (stereo not drawn) [Example 101, 4-(3-fluoro-5-((6-((1-(pyrrolidin-3-ylmethyl)-1H-pyrazol-4-yl)amino)-1H-pyrazolo[3,4-d]pyrimidin-1-yl)methyl)phenyl)morpholin-3-one]: less than 100 nM; for `O=C1CC(Cn2cc(Nc3ncc4cnn(Cc5cc(F)cc(N6CCOCC6=O)c5)c4n3)cn2)CN1` (stereo not drawn) [Example 105, 4-(3-fluoro-5-((6-((1-((5-oxopyrrolidin-3-yl)methyl)-1H-pyrazol-4-yl)amino)-1H-pyrazolo[3,4-d]pyrimidin-1-yl)methyl)phenyl)morpholin-3-one]: less than 100 nM.
Regarding `CN(C)C(=O)CCn1cc(Nc2ncc3cnn(Cc4cccc(N5CCOCC5)c4)c3n2)cn1` [Example 16, N,N-Dimethyl-3-(4-((1-(3-morpholinobenzyl)-1H-pyrazolo[3,4-d]pyrimidin-6-yl)amino)-1H-pyrazol-1-yl)propanamide], the IC50 is less than 100 nM.
With `O=C(CCn1cc(Nc2ncc3cnn(Cc4cccc(N5CCOCC5)c4)c3n2)cn1)N1CCCCC1` [Example 20, 3-(4-((1-(3-Morpholinobenzyl)-1H-pyrazolo[3,4-d]pyrimidin-6-yl)amino)-1H-pyrazol-1-yl)-1-(piperidin-1-yl)propan-1-one] the figure was less than 100 nM; with `C[C@@H]1COCCN1c1cccc(Cn2ncc3cnc(Nc4cnn(C)c4)nc32)c1` [Example 113, (R)-N-(1-methyl-1H-pyrazol-4-yl)-1-(3-(3-methylmorpholino)benzyl)-1H-pyrazolo[3,4-d]pyrimidin-6-amine], less than 100 nM.
